Experimental data from patent publication US20250084071A1, “COMPOUNDS AND COMPOSITIONS FOR TREATING CONDITIONS ASSOCIATED WITH STING ACTIVITY” (NOVARTIS PHARMA AG, priority 2022, published 2025).

Target: T1, STING (Homo sapiens, UniProt Q86WV6, G230A/H232R/R293Q/R71H)
T1 construct: host or cells: THP1-Dual KO-IFNAR2 cells
Assay: STING reporter assay in THP1-Dual KO-IFNAR2 cells (luciferase reporter, 2′3′cGAMP stimulation)
Type: cell-based
Settings: 2′3′cGAMP 15 μM, 24 h, luciferase reporter activity, GeoMean, read-out: Pharmaron, THP1_IFNAR2 STING 24 h Luci Normalized: GeoMean EC50
Experimental: STING pathway activation by the compounds described herein was measured using THP1-Dual™ cells (KO-IFNAR2).
THP1-Dual™ KO-IFNAR2 Cells (obtained from invivogen) were maintained in RPMI, 10% FCS, 5 ml P/S, 2 mM L-glut, 10 mM Hepes, and 1 mM sodium pyruvate. Compounds were spotted in empty 384 well tissue culture plates (Greiner 781182) by Echo for a final concentration of 0.0017-100 μM. Cells were plated into the TC plates at 40 μL per well, 2×10E6 cells/mL. For activation with STING ligand, 2′3′cGAMP (MW 718.38, obtained from Invivogen), was prepared in Optimem media.
The following solutions were prepared for each 1×384 plate: • Solution A: 2 mL Optimem with one of the following stimuli: • […] of 10 mM 2′3′cGAMP→150 μM stock • Solution B: 2 mL Optimem with 60 μL Lipofectamine 2000→Incubate 5 min at RT • 2 mL of solution A and 2 ml Solution B was mixed and incubated for 20 min at room temperature (RT). 20 μL of transfection solution (A+B) was added on top of the plated cells, with a final 2′3′cGAMP concentration of 15 μM. The plates were then centrifuged immediately at 340 g for 1 minute, after which they were incubated at 37° C., 5% CO2, >98% humidity for 24 h. Luciferase reporter activity was then measured. EC50 values were calculated by using standard methods known in the art.
Luciferase reporter assay: 10 μL of supernatant from the assay was transferred to white 384-plate with flat bottom and squared wells. One pouch of QUANTI-Luc™ Plus was dissolved in 25 mL of water. 100 μL of QLC Stabilizer per 25 mL of QUANTI-Luc™ Plus solution was added. 50 μL of QUANTI-Luc™ Plus/QLC solution per well was then added. Luminescence was measured on a Platereader (e.g., Spectramax I3X (Molecular Devices GF3637001)).
Luciferase reporter activity was then measured. EC50 values were calculated by using standard methods known in the art.

T1 sequence (Q86WV6 whole entry R71H/G230A/H232R/R293Q): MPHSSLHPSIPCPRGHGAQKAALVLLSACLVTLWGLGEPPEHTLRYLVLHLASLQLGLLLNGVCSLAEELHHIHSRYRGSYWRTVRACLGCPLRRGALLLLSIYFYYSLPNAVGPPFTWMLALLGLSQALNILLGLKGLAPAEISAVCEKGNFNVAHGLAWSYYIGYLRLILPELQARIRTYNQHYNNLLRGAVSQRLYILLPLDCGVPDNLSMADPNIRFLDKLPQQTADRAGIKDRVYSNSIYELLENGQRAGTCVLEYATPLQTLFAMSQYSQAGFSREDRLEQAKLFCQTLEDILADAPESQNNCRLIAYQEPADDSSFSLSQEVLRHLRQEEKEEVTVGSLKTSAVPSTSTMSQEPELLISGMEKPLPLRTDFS

O=S(=O)(CC1CCC1)Nc1c[nH]c2ccc(CCOc3ccc(C(F)(F)F)cc3)cc12 [Compound 114, 1-cyclobutyl-N-(5-(2-(4-(trifluoromethyl)phenoxy)ethyl)-1H-indol-3-yl)methanesulfonamide]
EC50: 200 to 1000 nM

O=S(=O)(CC1CCOCC1)Nc1c[nH]c2ccc(CCOc3ccc(C(F)(F)F)cc3)cc12 [Compound 108, 1-(tetrahydro-2H-pyran-4-yl)-N-(5-(2-(4-(trifluoromethyl)phenoxy)ethyl)-1H-indol-3-yl)methanesulfonamide]
EC50: 200 to 1000 nM

COCCS(=O)(=O)Nc1c[nH]c2ccc(OCCc3ccc(C(F)(F)F)cc3)cc12 [Compound 123, 2-methoxy-N-(5-(4-(trifluoromethyl)phenethoxy)-1H-indol-3-yl)ethane-1-sulfonamide]
EC50: 200 to 1000 nM

CCS(=O)(=O)Nc1c[nH]c2ccc(CCOc3ccc(C(F)(F)F)cc3)cc12 [Compound 113, N-(5-(2-(4-(trifluoromethyl)phenoxy)ethyl)-1H-indol-3-yl)ethanesulfonamide]
EC50: 200 to 1000 nM

O=S(=O)(Nc1c[nH]c2ccc(OCCc3ccc(C(F)(F)F)cc3)cc12)C1CCOCC1 [Compound 115, N-(5-(4-(trifluoromethyl)phenethoxy)-1H-indol-3-yl)tetrahydro-2H-pyran-4-sulfonamide]
EC50: 200 to 1000 nM

O=S(=O)(CCC(F)(F)F)Nc1c[nH]c2ccc(OCCc3ccc(C(F)(F)F)cc3)cc12 [Compound 120, 3,3,3-trifluoro-N-(5-(4-(trifluoromethyl)phenethoxy)-1H-indol-3-yl)propane-1-sulfonamide]
EC50: 200 to 1000 nM

Cn1cnc(S(=O)(=O)Nc2c[nH]c3ccc(OCCc4ccc(C(F)(F)F)cc4)cc23)c1 [Compound 118, 1-methyl-N-(5-(4-(trifluoromethyl)phenethoxy)-1H-indol-3-yl)-1H-imidazole-4-sulfonamide]
EC50: 200 to 1000 nM

Cn1cnc(S(=O)(=O)Nc2c[nH]c3ccc(CCOc4ccc(C(F)(F)F)cc4)cc23)c1 [Compound 111, 1-methyl-N-(5-(2-(4-(trifluoromethyl)phenoxy)ethyl)-1H-indol-3-yl)-1H-imidazole-4-sulfonamide]
EC50: 200 to 1000 nM

O=S(=O)(Nc1c[nH]c2ccc(CCOc3ccc(C(F)(F)F)cc3)cc12)c1cccc(Cl)n1 [Compound 104, 6-chloro-N-(5-(2-(4-(trifluoromethyl)phenoxy)ethyl)-1H-indol-3-yl)pyridine-2-sulfonamide]
EC50: 200 to 1000 nM

Cn1ccc(S(=O)(=O)Nc2c[nH]c3ccc(CCOc4ccc(C(F)(F)F)cc4)cc23)n1 [Compound 107, 1-methyl-N-(5-(2-(4-(trifluoromethyl)phenoxy)ethyl)-1H-indol-3-yl)-1H-pyrazole-3-sulfonamide]
EC50: 200 to 1000 nM

O=S(=O)(CC1CC1)Nc1c[nH]c2ccc(CCOc3ccc(C(F)(F)F)cc3)cc12 [Compound 126, 1-cyclopropyl-N-(5-(2-(4-(trifluoromethyl)phenoxy)ethyl)-1H-indol-3-yl)methanesulfonamide]
EC50: 200 to 1000 nM

O=S(=O)(CC1CCC1)Nc1c[nH]c2ccc(OCCc3ccc(C(F)(F)F)cc3)cc12 [Compound 119, 1-cyclobutyl-N-(5-(4-(trifluoromethyl)phenethoxy)-1H-indol-3-yl)methanesulfonamide]
EC50: 40 to 200 nM

Cn1ccc(S(=O)(=O)Nc2c[nH]c3ccc(OCCc4ccc(C(F)(F)F)cc4)cc23)n1 [Compound 116, 1-methyl-N-(5-(4-(trifluoromethyl)phenethoxy)-1H-indol-3-yl)-1H-pyrazole-3-sulfonamide]
EC50: 200 to 1000 nM

Cn1cc(S(=O)(=O)Nc2c[nH]c3ccc(OCCc4ccc(C(F)(F)F)cc4)cc23)cn1 [Compound 110, 1-methyl-N-(5-(4-(trifluoromethyl)phenethoxy)-1H-indol-3-yl)-1H-pyrazole-4-sulfonamide]
EC50: 40 to 200 nM

CCS(=O)(=O)Nc1c[nH]c2ccc(OCCc3ccc(C(F)(F)F)cc3)cc12 [Compound 121, N-(5-(4-(trifluoromethyl)phenethoxy)-1H-indol-3-yl)ethanesulfonamide]
EC50: 200 to 1000 nM

O=S(=O)(Nc1c[nH]c2ccc(CCOc3ccc(C(F)(F)F)cc3)cc12)C1CCOCC1 [Compound 105, N-(5-(2-(4-(trifluoromethyl)phenoxy)ethyl)-1H-indol-3-yl)tetrahydro-2H-pyran-4-sulfonamide]
EC50: 200 to 1000 nM

O=S(=O)(CC1CCCO1)Nc1c[nH]c2ccc(OCCc3ccc(C(F)(F)F)cc3)cc12 (centres unmarked) [Compound 117, 1-(tetrahydrofuran-2-yl)-N-(5-(4-(trifluoromethyl)phenethoxy)-1H-indol-3-yl)methanesulfonamide]
EC50: 200 to 1000 nM

O=S(=O)(CCC1CC1)Nc1c[nH]c2ccc(CCOc3ccc(C(F)(F)F)cc3)cc12 [Compound 112, 2-cyclopropyl-N-(5-(2-(4-(trifluoromethyl)phenoxy)ethyl)-1H-indol-3-yl)ethane-1-sulfonamide]
EC50: 200 to 1000 nM

O=S(=O)(CC1CC1)Nc1c[nH]c2ccc(OCCc3ccc(C(F)(F)F)cc3)cc12 [Compound 124, 1-cyclopropyl-N-(5-(4-(trifluoromethyl)phenethoxy)-1H-indol-3-yl)methanesulfonamide]
EC50: 40 to 200 nM

COCCS(=O)(=O)Nc1c[nH]c2ccc(CCOc3ccc(C(F)(F)F)cc3)cc12 [Compound 109, 2-methoxy-N-(5-(2-(4-(trifluoromethyl)phenoxy)ethyl)-1H-indol-3-yl)ethane-1-sulfonamide]
EC50: 200 to 1000 nM

O=S(=O)(CCC(F)(F)F)Nc1c[nH]c2ccc(CCOc3ccc(C(F)(F)F)cc3)cc12 [Compound 106, 3,3,3-trifluoro-N-(5-(2-(4-(trifluoromethyl)phenoxy)ethyl)-1H-indol-3-yl)propane-1-sulfonamide]
EC50: 40 to 200 nM

O=S(=O)(CC1CCCO1)Nc1c[nH]c2ccc(CCOc3ccc(C(F)(F)F)cc3)cc12 (centres unmarked) [Compound 125, 1-(tetrahydrofuran-2-yl)-N-(5-(2-(4-(trifluoromethyl)phenoxy)ethyl)-1H-indol-3-yl)methanesulfonamide]
EC50: 200 to 1000 nM

O=S(=O)(Cc1ccccc1)Nc1c[nH]c2ccc(OCCc3ccc(C(F)(F)F)cc3)cc12 [Compound 122, 1-phenyl-N-(5-(4-(trifluoromethyl)phenethoxy)-1H-indol-3-yl)methanesulfonamide]
EC50: 40 to 200 nM
